Assay results taken from ChEMBL document CHEMBL3259698, “Reductions in log P improved protein binding and clearance predictions enabling the prospective design of cannabinoid receptor (CB1) antagonists with desired pharmacokinetic properties” (J Med Chem, 2013).
≈ marks a conversion by molar mass, not a printed value. One block for each compound: values may come before it.

Experiments:
[1] = Elimination half life in human; format: ADME, organism-based; details: in vivo, read-out: beta t1/2 (converted)
[2] = Clearance in Sprague-Dawley rat at 3 mg/kg, iv; details: in vivo
[3] = Terminal half life in Sprague-Dawley rat at 3 mg/kg, iv; format: ADME, organism-based; parameters: dose 3 mg/kg, route intravenous; details: in vivo, read-out: beta t1/2 (converted)
[4] = molecular target: Cannabinoid receptor 1 (Homo sapiens, UniProt P21554); test: Binding affinity to human CB1 receptor expressed in CHO cells by radioligand displacement based scintillation counting analysis; format: cell-based
[5] = tested on: Rattus norvegicus; test: Reduction in food intake in nonfasted po dosed Sprague-Dawley rat measured for 20 hrs; format: functional; details: read-out: MED
[6] = Lipophilicity, log P of the compound by HPLC analysis; format: physicochemical
[7] = molecular target: Cytochrome P450 2C9 (Homo sapiens, UniProt P11712); test: Inhibition of human recombinant CYP2C9; format: ADME
[8] = molecular target: Cytochrome P450 2C19 (Homo sapiens, UniProt P33261); test: Inhibition of human recombinant CYP2C19; format: ADME
[9] = molecular target: Cytochrome P450 3A4 (Homo sapiens, UniProt P08684); test: Inhibition of human recombinant CYP3A4
[10] = Fraction unbound in rat plasma at 10 uM by equilibrium dialysis method; format: ADME, cell-free
[11] = tested on: Rattus norvegicus; test: Antiobesity activity in diet-induced obese rat as reduction in body weight at 10 mg/kg, po after 28 days; format: functional; parameters: scale not given: the % may be the effect or the level left
[12] = tested on: Rattus norvegicus; test: Antiobesity activity in rat assessed as reduction in body weight at 10 mg/kg, qd after 4 days; format: functional; parameters: scale not given: the % may be the effect or the level left
[13] = Aqueous solubility of the compound; format: physicochemical; details: buffer
[14] = tested on: Liver microsome; test: Clearance in rat liver microsomes at 1 to 3 uM after 20 mins by LC/MS/MS analysis
[15] = Elimination half life in iv dosed cynomolgus monkey; format: ADME, organism-based, Macaca fascicularis; details: in vivo, read-out: beta t1/2 (converted)
[16] = Elimination half life in iv dosed dog; format: ADME, organism-based, Canis lupus familiaris; details: in vivo, read-out: beta t1/2 (converted)
[17] = Metabolic stability in rat hepatocytes assessed as compound remaining at 0.5 to 3 uM after 2 hrs by LC-MS/MS analysis; format: ADME, cell-based, Hepatocyte; details: read-out: Stability
[18] = Oral bioavailability in Sprague-Dawley rat; format: ADME, organism-based; details: in vivo
[19] = tested on: Rattus norvegicus; test: Drug excretion in bile duct-cannulated rat assessed as M + 2O-2H level at 5 mg/kg, po; format: ADME, organism-based; parameters: dose 5 mg/kg, route oral; details: in vivo
[20] = Fraction unbound in human plasma at 10 uM by equilibrium dialysis method; format: ADME, cell-free
[21] = Drug excretion in bile duct-cannulated rat bile assessed as M + 2O-2H and M + O + glucuronide level at 5 mg/kg, po after 48 hrs; format: ADME, organism-based; parameters: dose 5 mg/kg, route oral; details: in vivo
[22] = Oral bioavailability in dog; format: ADME, organism-based, Canis lupus familiaris; details: in vivo
[23] = Drug excretion in bile duct-cannulated rat bile at 5 mg/kg, po after 48 hrs; format: ADME, organism-based; parameters: dose 5 mg/kg, route oral; details: read-out: Drug excretion
[24] = tested on: Rattus norvegicus; test: Antiobesity activity in rat assessed as reduction in body weight at 3 mg/kg after 4 days; format: functional; parameters: scale not given: the % may be the effect or the level left
[25] = Oral bioavailability in cynomolgus monkey; format: ADME, organism-based, Macaca fascicularis; details: in vivo
[26] = Drug excretion in bile duct-cannulated rat urine assessed as M + 2O-2H and M + O + glucuronide level at 5 mg/kg, po after 48 hrs; format: ADME, organism-based; parameters: dose 5 mg/kg, route oral; details: in vivo
[27] = tested on: Rattus norvegicus; test: Antiobesity activity in diet-induced obese rat as reduction in body weight at 1 mg/kg, po after 28 days; format: functional; parameters: scale not given: the % may be the effect or the level left
[28] = Drug excretion in bile duct-cannulated rat at 5 mg/kg, po; format: ADME, organism-based; parameters: dose 5 mg/kg, route oral; details: read-out: Drug excretion
[29] = tested on: Rattus norvegicus; test: Drug excretion in bile duct-cannulated rat assessed as M + O + glucuronide level at 5 mg/kg, po; format: ADME, organism-based; parameters: dose 5 mg/kg, route oral; details: in vivo
[30] = tested on: Rattus norvegicus; test: Antiobesity activity in rat assessed as reduction in body weight at 10 mg/kg after 4 days; format: functional; parameters: scale not given: the % may be the effect or the level left
[31] = tested on: Rattus norvegicus; test: Antiobesity activity in diet-induced obese rat as reduction in body weight at 3 mg/kg, po after 28 days; format: functional; parameters: scale not given: the % may be the effect or the level left

Chain of Cytochrome P450 3A4 (P08684 whole entry): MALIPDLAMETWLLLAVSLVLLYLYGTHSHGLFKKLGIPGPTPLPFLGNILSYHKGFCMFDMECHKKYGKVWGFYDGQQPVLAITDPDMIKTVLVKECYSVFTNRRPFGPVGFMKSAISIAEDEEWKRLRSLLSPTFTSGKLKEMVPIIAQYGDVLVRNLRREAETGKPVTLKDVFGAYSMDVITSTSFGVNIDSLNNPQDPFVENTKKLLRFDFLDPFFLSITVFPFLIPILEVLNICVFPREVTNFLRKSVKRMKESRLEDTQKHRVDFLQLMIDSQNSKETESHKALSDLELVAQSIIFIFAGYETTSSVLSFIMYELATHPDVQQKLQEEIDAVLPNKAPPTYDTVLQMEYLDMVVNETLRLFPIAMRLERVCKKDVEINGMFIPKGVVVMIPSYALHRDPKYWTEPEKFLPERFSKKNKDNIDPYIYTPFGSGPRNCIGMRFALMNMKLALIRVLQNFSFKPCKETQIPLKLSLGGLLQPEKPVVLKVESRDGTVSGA
Chain of Cannabinoid receptor 1 (P21554 whole entry): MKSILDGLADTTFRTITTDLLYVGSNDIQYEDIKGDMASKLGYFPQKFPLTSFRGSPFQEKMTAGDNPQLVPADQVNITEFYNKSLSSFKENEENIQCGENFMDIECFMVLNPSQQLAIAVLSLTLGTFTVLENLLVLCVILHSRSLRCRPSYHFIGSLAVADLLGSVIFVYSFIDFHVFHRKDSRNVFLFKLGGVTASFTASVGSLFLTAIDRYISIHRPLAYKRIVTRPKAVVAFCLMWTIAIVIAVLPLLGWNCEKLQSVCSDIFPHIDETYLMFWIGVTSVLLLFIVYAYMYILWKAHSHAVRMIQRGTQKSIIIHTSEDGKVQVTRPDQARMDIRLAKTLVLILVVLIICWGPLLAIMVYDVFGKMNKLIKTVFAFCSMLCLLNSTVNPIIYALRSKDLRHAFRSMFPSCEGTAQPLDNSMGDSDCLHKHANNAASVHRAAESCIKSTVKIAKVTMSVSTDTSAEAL
Chain of Cytochrome P450 2C19 (P33261 whole entry): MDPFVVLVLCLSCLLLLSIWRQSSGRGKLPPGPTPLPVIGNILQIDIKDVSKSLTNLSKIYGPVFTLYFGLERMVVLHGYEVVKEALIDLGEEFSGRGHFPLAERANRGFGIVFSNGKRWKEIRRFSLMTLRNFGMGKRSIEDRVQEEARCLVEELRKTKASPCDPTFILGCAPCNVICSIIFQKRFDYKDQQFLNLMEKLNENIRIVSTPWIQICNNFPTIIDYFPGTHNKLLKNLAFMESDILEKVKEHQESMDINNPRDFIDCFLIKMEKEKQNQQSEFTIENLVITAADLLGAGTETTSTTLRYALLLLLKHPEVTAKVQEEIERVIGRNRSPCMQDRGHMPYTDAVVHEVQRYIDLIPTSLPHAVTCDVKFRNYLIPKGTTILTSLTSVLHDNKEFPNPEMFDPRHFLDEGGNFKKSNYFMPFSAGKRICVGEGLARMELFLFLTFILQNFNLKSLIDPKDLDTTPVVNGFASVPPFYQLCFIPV
Chain of Cytochrome P450 2C9 (P11712 whole entry): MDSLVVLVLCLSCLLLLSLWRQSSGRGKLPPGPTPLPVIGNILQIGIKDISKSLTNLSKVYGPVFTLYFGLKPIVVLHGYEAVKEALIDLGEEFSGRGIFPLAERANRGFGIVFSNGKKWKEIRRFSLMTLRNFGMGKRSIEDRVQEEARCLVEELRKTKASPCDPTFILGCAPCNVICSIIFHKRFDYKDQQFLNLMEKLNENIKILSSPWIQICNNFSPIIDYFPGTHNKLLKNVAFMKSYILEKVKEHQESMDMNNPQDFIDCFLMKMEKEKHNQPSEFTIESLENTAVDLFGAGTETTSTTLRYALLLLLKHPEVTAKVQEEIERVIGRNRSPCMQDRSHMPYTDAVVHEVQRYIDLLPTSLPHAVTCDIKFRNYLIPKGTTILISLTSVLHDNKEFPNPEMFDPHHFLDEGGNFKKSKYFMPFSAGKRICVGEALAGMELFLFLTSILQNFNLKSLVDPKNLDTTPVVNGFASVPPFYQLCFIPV

SMILES: C[C@H](NC(=O)C(C)(C)Oc1ccc(C(F)(F)F)cn1)[C@@H](Cc1ccc(Cl)cc1)c1cccc(C#N)c1 [TARANABANT]
half-life [1]: 72 h

SMILES: O=c1n(Cc2ccc(C(F)(F)F)nc2)nc2c(-c3ccncc3)c(-c3ccc(Cl)cc3)cnn12
clearance [2]: 0.4 mL/min/kg | half-life [3]: 15 h | Ki [4]: 0.012 µM | minimal effective dose [5]: 0.3 mg/kg | logP [6]: 3.2

SMILES: COc1nn2c(=O)n(Cc3ccc(C(F)(F)F)nc3)nc2c(-c2ccncc2)c1-c1ccc(Cl)cc1
half-life [3]: 17 h | Ki [4]: 0.01 µM | minimal effective dose [5]: 3 mg/kg | logP [6]: 3.7

SMILES: Cc1c(C(=O)NN2CCCCC2)nn(-c2ccc(Cl)cc2Cl)c1-c1ccc(Cl)cc1 [RIMONABANT]
Activity [11]: 6.2% | Activity [12]: 5% | half-life [1]: 216 h

SMILES: Cn1c(=O)c(-c2ccc(Cl)cc2)c(-c2ccncc2)c2nn(Cc3ccc(C(F)(F)F)nc3)c(=O)n21
solubility [13]: 1 µg/mL (≈ 1.95 µM) | half-life [3]: 35 h | Ki [4]: 0.018 µM | minimal effective dose [5]: 1 mg/kg | logP [6]: 3.5

SMILES: CCCn1nc2c(-c3ccc(Cl)cc3)c(-c3ccc(C#N)cc3)c(=O)n(Cc3ccc(C(F)(F)F)nc3C)n2c1=O
clearance [2]: 29 mL/min/kg | half-life [3]: 29 h | Ki [4]: 0.0017 µM | CLH [14]: 0.17 nmol/min/mg | logP [6]: 5.1

SMILES: CCn1nc2c(-c3ccc(Cl)cc3)c(-c3ccncc3C)c(=O)n(Cc3ccc(C(F)(F)F)nc3C)n2c1=O
Ki [4]: 0.0084 µM | IC50 [7]: 5 µM | IC50 [8]: 32 µM | IC50 [9]: > 40 µM | logP [6]: 4.2

SMILES: CCNC1(C(N)=O)CCN(c2ncnc3c2nc(-c2ccccc2Cl)n3-c2ccc(Cl)cc2)CC1 [OTENABANT]
half-life [1]: 120 h

SMILES: CCn1nc2c(-c3ccc(Cl)cc3)c(-c3ccc(CO)nc3)c(=O)n(Cc3ccc(C(F)(F)F)nc3C)n2c1=O
fraction unbound at 10 µM [10]: 0.09 | half-life [3]: 1.1 h | Ki [4]: 0.005 µM | half-life [15]: 9 h | logP [6]: 3.6 | half-life [16]: 7 h

SMILES: CCn1nc2c(-c3ccc(Cl)cc3)c(-c3cnc(C)nc3)c(=O)n(Cc3ccc(C(F)(F)F)nc3C)n2c1=O
solubility [13]: 17 µg/mL (≈ 30.6 µM) | Activity [11]: 10.2% | remaining at 2 h, 3 µM [17]: 5% | bioavailability [18]: 73% | fraction unbound at 10 µM [10]: 0.13 | Drug excretion [19]: 36 %ID | fraction unbound at 10 µM [20]: 0.07 | half-life [3]: 5 h | Drug excretion [21]: 76 %ID | Ki [4]: 0.0047 µM | bioavailability [22]: 75% | dose excreted at 48 h [23]: 0.8% | IC50 [7]: > 40 µM | IC50 [8]: > 40 µM | Activity [24]: 2.8% | bioavailability [25]: 51% | Drug excretion [26]: 7 %ID | Activity [27]: 2.4% | dose excreted [28]: < 1% | IC50 [9]: > 40 µM | Drug excretion [29]: 26 %ID | Activity [30]: 7.2% | half-life [15]: 12 h | Activity [31]: 4.1% | logP [6]: 3.8 | half-life [16]: 42 h

Continued, values first:

Ki [4]: 0.092 µM | IC50 [7]: > 40 µM | IC50 [8]: > 40 µM | IC50 [9]: 3.4 µM | logP [6]: 3.8
SMILES: CCn1nc2c(-c3ccc(Cl)cc3)c(-c3cnn(C)c3)c(=O)n(Cc3ccc(C#N)cc3)n2c1=O

Ki [4]: 0.214 µM
SMILES: Cn1nc2c(-c3ccncc3)c(-c3ccc(Cl)cc3)c(=O)n(Cc3ccc(C#N)cc3)n2c1=O

fraction unbound at 10 µM [10]: 0.05 | half-life [3]: 3.5 h | Ki [4]: 0.029 µM | logP [6]: 3
SMILES: Cn1nc2c(-c3ccc(Cl)cc3)c(-c3ccncc3)c(=O)n(Cc3ccc(C#N)cc3)n2c1=O

Ki [4]: 0.077 µM | IC50 [7]: > 40 µM | IC50 [8]: > 40 µM | IC50 [9]: > 40 µM | logP [6]: 4.3
SMILES: CCn1nc2c(-c3ccc(Cl)cc3)c(-c3cnc(N(C)C)nc3)c(=O)n(Cc3ccc(C#N)cc3)n2c1=O

Ki [4]: 0.0042 µM
SMILES: N#Cc1ccc(Cn2nc3c(-c4ccncc4)c(-c4ccc(Cl)cc4)c(=O)n(Cc4ccc(C#N)cc4)n3c2=O)cc1
